Reference: patent US20210371483A1, “Composition for Inactivating Spores by Means of Antimicrobial Peptides” (Robert Bosch Gesellschaft Fur Medizinische Fruschung mbH, priority 2016, published 2021)
“Also recorded” adds a separate entry of the source. Where no end group is shown, it is not given here.

Tests used:
Type in all cases: cell-based, Clostridium difficile
C. difficile spores [1] = assay: Incubation of C. difficile spore suspension with antimicrobial peptides, plating and counting of germinated spores; settings: spore suspension (at least 70% spores) incubated 60 minutes with peptide; plated on Columbia blood agar, anaerobic at least 4 days
Experimental: (§1) The effects of antimicrobial peptides on C. difficile spores were investigated by first enriching a bacterial suspension with spores so that at least 70% spores were present. The spore suspension was incubated for 60 minutes with various defensins (HBD1, HBD2, HBD3) and the cathelicidin LL37 (recombinant defensins: Peptanova Sandhausen, HBD1 order No. 4337; HBD2; 4338, HBD3 4382/recombinant LL37: Innovagen Lund Sweden, order No. SP-LL-37-1). Thereafter, aliquots of the samples were plated out on Columbia blood agar and incubated anaerobically for at least 4 days. The germinated spores in an untreated control and the preparations containing antimicrobial peptides were counted.

C. difficile spores [2] = assay: Spore germination after incubation, wash-out and heat killing of residual vegetative cells (FIG. 1); settings: for decrease in germinating spores: incubation, wash-out, heat 61° C., 30 min, as a function of peptide concentration
Experimental: as §1
In further experiments, the inventers wanted to make the unambiguous assignment that resultant bacterial colonies can be attributed with certainty to the germinated spores and not to the steady growth of residual vegetative cells. To this end, incubation and wash-out were followed by killing the residual vegetative cells using heat (61° C., 30 min). This heat treatment kills only the vegetative cells, but not the spores.

C. difficile spores [3] = assay: Spore germination experiment repeated with wash-out of the peptides after incubation; settings: peptides washed out at end of incubation, medium free of peptides
Experimental: as §1
In order to able to establish with certainty whether either germinating bacteria are rapidly killed by the presence of antimicrobial peptides in the medium or the spores are in fact prevented from germinating, the experiment was repeated, but at the end of the incubation time, the peptides were washed out and the medium was free of peptides.

C. difficile spores [4] = assay: Electron microscopy of C. difficile spores incubated with gold-labeled HBD3 peptides (FIGS. 2 and 3)

Substance	germinated spores in comparison with the controls (C. difficile spores [1])	difference between the effect of LL37 and HBD3 (C. difficile spores [2]; at larger concentrations (10 μg/mL))	difference between the effect of LL37 and HBD3 (C. difficile spores [2]; at low concentrations)	decrease in germinating spores (C. difficile spores [2])	inhibitory effect on spore germination despite wash-out (C. difficile spores [3])	number of germinating spores (C. difficile spores [2]; 2.5 μg/mL peptide, after wash-out and heat treatment)	efficacy compared with the other effective peptide (C. difficile spores [2]; in lower concentrations, after wash-out and heat treatment)	structural destruction of the spores (C. difficile spores [4])	penetration into the spores (C. difficile spores [4]; gold-labeled HBD3 peptides)
cathelicidin LL-37 [LL37]	significantly fewer germinated spores	hardly noticeable	distinct difference	concentration-dependent decrease in germinating spores	maintained	–	–	–	–
human beta-defensin-3 (GIINTLQKYYCRVRGGRCAVLSCLPKEEQIGKCSTRGRKCCRRKK; ends and bridges not checked; cysteine pairing not given here; UniProt P81534 23-67, looked up) [HBD3, Human beta-defensin 3, protein composed of 45 amino acids, net charge +11; recombinant, Peptanova order No. 4382]	significantly fewer germinated spores	–	–	concentration-dependent decrease in germinating spores	maintained	greatly lowering the number of germinating spores	somewhat higher efficacy	destroyed structurally; also recorded: destroys parts of the spore structure	able to penetrate into the spores; also recorded: penetrates into the exosporium
